What was measured:
[1] = test system: α-isomaltosylglucosaccharide-forming enzyme; assay: Action on saccharides as substrates (TLC), enzyme of C9 strain; assay type: biochemical, Bacillus globisporus C9 strain; parameters: key: −: it showed no change; +: it showed a slight reduction of the color spot of the substrate and the formation of other reaction product; ++: it showed a high reduction of the color spot of the substrate and the formation of other reaction product; +++: it showed a substantial disappearance of the substrate spot and the formation of other reaction product; details: two units/g substrate, substrate 2% (w/v), 30° C., pH 6.0, 24 hours
Description: (§1) To examine the saccharides in the supernatant, they were separated by developing twice on silica gel thin-layer chromatography (abbreviated as “TLC” hereinafter) using, as a developer, a mixture solution of n-butanol, pyridine, and water (=6:4:1 by volume), and, as a thin-layer plate, “[…]™ 60”, an aluminum plate (20×20 cm) for TLC commercialized by Merck & Co., Inc., Rahway, USA. The coloration of the separated total sugars by the sulfuric acid-methanol method and that of the reducing saccharides by the diphenylamine-aniline method detected a non-reducing saccharide positive at an Rf value of about 0.31 on the former detection method but negative on the latter detection method.
(§2) It was tested whether any saccharides can be used as substrates for α-isomaltosylglucosaccharide-forming enzyme. For the purpose, a solution of maltose, maltotriose, maltotetraose, maltopentaose, maltohexaose, maltoheptaose, isomaltose, isomaltotriose, panose, isopanose, α,α-trehalose, kojibiose, nigerose, neotrehalose, cellobiose, gentibiose, maltitol, maltotriitol, lactose, sucrose, erlose, selaginose, maltosyl glucoside, or isomaltosyl glucoside was prepared.
(§3) To each of the above solutions was added two units/g substrate of a purified specimen of α-isomaltosylglucosaccharide-forming enzyme from either Bacillus globisporus C9 strain obtained by the method in Experiment 4-2, Bacillus globisporus C11 strain obtained by the method in Experiment 7-2, Bacillus globisporus N75 strain obtained by the method in Experiment 11-2, or Arthrobacter globiformis A19 strain obtained by the method in Experiment 15-2, and the resulting each solution was adjusted to give a substrate concentration of 2% (w/v) and incubated at 30° C. and pH 6.0 for 24 hours, except for using pH 8.4 for the enzyme from Arthrobacter globiformis A19 strain. The enzyme solutions before and after the enzymatic reactions were respectively analyzed on TLC disclosed in Experiment 1 to confirm whether the enzymes acted on these substrates.

[2] = test system: α-isomaltosylglucosaccharide-forming enzyme; assay: Action on saccharides as substrates (TLC), enzyme of C11 strain; assay type: biochemical, Bacillus globisporus C11 strain; parameters: key: −: it showed no change; +: it showed a slight reduction of the color spot of the substrate and the formation of other reaction product; ++: it showed a high reduction of the color spot of the substrate and the formation of other reaction product; +++: it showed a substantial disappearance of the substrate spot and the formation of other reaction product; details: two units/g substrate, substrate 2% (w/v), 30° C., pH 6.0, 24 hours
Description: as §1, §2, §3

[3] = test system: α-isomaltosylglucosaccharide-forming enzyme; assay: Action on saccharides as substrates (TLC), enzyme of N75 strain; assay type: biochemical, Bacillus globisporus N75 strain; parameters: key: −: it showed no change; +: it showed a slight reduction of the color spot of the substrate and the formation of other reaction product; ++: it showed a high reduction of the color spot of the substrate and the formation of other reaction product; +++: it showed a substantial disappearance of the substrate spot and the formation of other reaction product; details: two units/g substrate, substrate 2% (w/v), 30° C., pH 6.0, 24 hours
Description: as §1, §2, §3

[4] = test system: α-isomaltosylglucosaccharide-forming enzyme; assay: Action on saccharides as substrates (TLC), enzyme of A19 strain; assay type: biochemical, Arthrobacter globiformis A19 strain; parameters: key: −: it showed no change; +: it showed a slight reduction of the color spot of the substrate and the formation of other reaction product; ++: it showed a high reduction of the color spot of the substrate and the formation of other reaction product; +++: it showed a substantial disappearance of the substrate spot and the formation of other reaction product; details: two units/g substrate, substrate 2% (w/v), 30° C., pH 8.4, 24 hours
Description: as §1, §2, §3

[5] = test system: α-isomaltosylglucosaccharide-forming enzyme; assay: Transfer-acceptor specificity, enzyme of C9 strain; assay type: biochemical, Bacillus globisporus C9 strain; details: acceptor 1.6%, PINE-DEX #100 donor 4%, one unit/g donor, 30° C., pH 6.0, 24 hours
Procedure: (§4) Using various saccharides, it was tested whether the saccharides were used as transferring-acceptors for α-isomaltosylglucosaccharide-forming enzyme. A solution of D-glucose, D-xylose, L-xylose, D-galactose, D-fructose, D-mannose, D-arabinose, D-fucose, D-psicose, L-sorbose, L-rhamnose, methyl-α-glucopyranoside, methyl-β-glucopyranoside, N-acetyl-glucosamine, sorbitol, α,α-trehalose, isomaltose, isomaltotriose, cellobiose, gentibiose, glycerol, maltitol, lactose, sucrose, α-cyclodextrin, β-cyclodextrin, γ-cyclodextrin, or L-ascorbic acid was prepared. To each solution with a saccharide concentration of 1.6% was added “PINE-DEX #100”, a partial starch hydrolyzate, as a saccharide donor, to give a concentration of 4%, and admixed with one unit/g saccharide donor, d.s.b., of either of purified specimens of α-isomaltosylglucosaccharide-forming enzyme from Bacillus globisporus C9 strain obtained by the method in Experiment 4-2, Bacillus globisporus C11 strain obtained by the method in Experiment 7-2, Bacillus globisporus N75 strain obtained by the method in Experiment 11-2, or Arthrobacter globiformis A19 strain obtained by the method in Experiment 15-2, and incubated at 30° C. and pH 6.0 for 24 hours, except that pH 8.4 was used for the enzyme from Arthrobacter globiformis A19 strain. The reaction mixtures of the post-enzymatic reactions were analyzed on gas chromatography (abbreviated as “GLC” hereinafter) for monosaccharides and disaccharides as acceptors, and on HPLC for trisaccharides as acceptors to confirm whether these saccharides could be used as the transfer acceptors of the above enzymes. In the case of performing GLC, the following apparatuses and conditions were used: GLC apparatus, “GC-16A” commercialized by Shimadzu Corporation, Tokyo, Japan; column, a stainless-steel column, 3 mm in diameter and 2 m in length, packed with 2% “SILICONE OV-17/CHROMOSOLV W”, commercialized by GL Sciences Inc., Tokyo, Japan; carrier gas, nitrogen gas at a flow rate of 40 ml/min under temperature conditions of increasing from 160° C. to 320° C. at an increasing temperature rate of 7.5° C./min; and detection, a hydrogen flame ionization detector. In the case of performing HPLC analysis, the following apparatuses and conditions were used: HPLC apparatus, “CCPD” commercialized by Tosoh Corporation, Tokyo, Japan; column, “ODS-AQ-303” commercialized by YMC Co., Ltd., Tokyo, Japan; eluent, water at a flow rate of 0.5 ml/min; and detection, a differential refractometer.

[6] = test system: α-isomaltosylglucosaccharide-forming enzyme; assay: Transfer-acceptor specificity, enzyme of C11 strain; assay type: biochemical, Bacillus globisporus C11 strain; details: acceptor 1.6%, PINE-DEX #100 donor 4%, one unit/g donor, 30° C., pH 6.0, 24 hours
Procedure: as §4

[7] = test system: α-isomaltosylglucosaccharide-forming enzyme; assay: Transfer-acceptor specificity, enzyme of N75 strain; assay type: biochemical, Bacillus globisporus N75 strain; details: acceptor 1.6%, PINE-DEX #100 donor 4%, one unit/g donor, 30° C., pH 6.0, 24 hours
Procedure: as §4

[8] = test system: α-isomaltosylglucosaccharide-forming enzyme; assay: Transfer-acceptor specificity, enzyme of A19 strain; assay type: biochemical, Arthrobacter globiformis A19 strain; details: acceptor 1.6%, PINE-DEX #100 donor 4%, one unit/g donor, 30° C., pH 8.4, 24 hours
Procedure: as §4

**Q.** Which “Enzymatic action, Enzyme of C9 strain” value [1] does the source give for `O=C[C@H](O)[C@@H](O)[C@H](O[C@@H]1O[C@H](CO)[C@@H](O)[C@H](O)[C@H]1O)[C@H](O)CO` [Cellobiose, cellobiose] here?
**A.** −

**Q.** What about the “Enzymatic action, Enzyme of C11 strain” value [2] of the same compound?
**A.** −

**Q.** And the “Enzymatic action, Enzyme of N75 strain” value [3]?
**A.** −

**Q.** And the “Enzymatic action, Enzyme of A19 strain” value [4]?
**A.** −

**Q.** And the “Product of transferring reaction, Enzyme of C9 strain” value (“Product … of C9 strain” for short) [5]?
**A.** ++ (a saccharide-transferred product was detected in an amount over ten percent through transfer reaction to acceptor)

**Q.** And the “Product of transferring reaction, Enzyme of C11 strain” value (“Product … of C11 strain” for short) [6]?
**A.** ++ (a saccharide-transferred product was detected in an amount over ten percent through transfer reaction to acceptor)

**Q.** And the “Product of transferring reaction, Enzyme of N75 strain” value (from here on “Product … of N75 strain”) [7]?
**A.** ++ (a saccharide-transferred product was detected in an amount over ten percent through transfer reaction to acceptor)

**Q.** And the “Product of transferring reaction, Enzyme of A19 strain” value (from here on “Product … of A19 strain”) [8]?
**A.** ++ (a saccharide-transferred product was detected in an amount over ten percent through transfer reaction to acceptor)

**Q.** `OC[C@H]1O[C@@H](OC[C@H]2OC(O)[C@H](O)[C@@H](O)[C@@H]2O)[C@H](O)[C@@H](O)[C@@H]1O` (stereo partly shown) [Gentibiose, gentibiose] was tested. Which “Enzymatic action, Enzyme of C9 strain” value [1] did it give?
**A.** −

**Q.** What about the “Enzymatic action, Enzyme of C11 strain” value [2] of the same compound?
**A.** −

**Q.** What about the “Enzymatic action, Enzyme of N75 strain” value [3] of the same compound?
**A.** −

**Q.** And the “Enzymatic action, Enzyme of A19 strain” value [4]?
**A.** −

**Q.** What about the “Product … of C9 strain” value [5] of the same compound?
**A.** ++ (a saccharide-transferred product was detected in an amount over ten percent through transfer reaction to acceptor)

**Q.** What about the “Product … of C11 strain” value [6] of the same compound?
**A.** ++ (a saccharide-transferred product was detected in an amount over ten percent through transfer reaction to acceptor)

**Q.** And the “Product … of N75 strain” value [7]?
**A.** ++ (a saccharide-transferred product was detected in an amount over ten percent through transfer reaction to acceptor)

**Q.** What about the “Product … of A19 strain” value [8] of the same compound?
**A.** + (a saccharide-transferred product was detected in an amount over one percent but less than 10% through transfer reaction to acceptor)

**Q.** Which “Enzymatic action, Enzyme of C9 strain” value [1] does the source give for `OC[C@H]1O[C@H](OC[C@H]2OC(O)[C@H](O)[C@@H](O)[C@@H]2O)[C@H](O)[C@@H](O)[C@@H]1O` (stereo partly shown) [Isomaltose, isomaltose] here?
**A.** −

**Q.** And the “Enzymatic action, Enzyme of C11 strain” value [2]?
**A.** −

**Q.** And the “Enzymatic action, Enzyme of N75 strain” value [3]?
**A.** −

**Q.** What about the “Enzymatic action, Enzyme of A19 strain” value [4] of the same compound?
**A.** −

**Q.** And the “Product … of C9 strain” value [5]?
**A.** ++ (a saccharide-transferred product was detected in an amount over ten percent through transfer reaction to acceptor)

**Q.** And the “Product … of C11 strain” value [6]?
**A.** ++ (a saccharide-transferred product was detected in an amount over ten percent through transfer reaction to acceptor)

**Q.** And the “Product … of N75 strain” value [7]?
**A.** ++ (a saccharide-transferred product was detected in an amount over ten percent through transfer reaction to acceptor)

**Q.** What about the “Product … of A19 strain” value [8] of the same compound?
**A.** + (a saccharide-transferred product was detected in an amount over one percent but less than 10% through transfer reaction to acceptor)

**Q.** For `OC[C@H]1O[C@H](OC[C@H]2O[C@H](OC[C@H]3OC(O)[C@H](O)[C@@H](O)[C@@H]3O)[C@H](O)[C@@H](O)[C@@H]2O)[C@H](O)[C@@H](O)[C@@H]1O` (stereo partly shown) [Isomaltotriose, isomaltotriose], which “Enzymatic action, Enzyme of C9 strain” value [1] is on record?
**A.** −

**Q.** What about the “Enzymatic action, Enzyme of C11 strain” value [2] of the same compound?
**A.** −

**Q.** What about the “Enzymatic action, Enzyme of N75 strain” value [3] of the same compound?
**A.** −

**Q.** What about the “Enzymatic action, Enzyme of A19 strain” value [4] of the same compound?
**A.** −

**Q.** What about the “Product … of C9 strain” value [5] of the same compound?
**A.** ++ (a saccharide-transferred product was detected in an amount over ten percent through transfer reaction to acceptor)

**Q.** And the “Product … of C11 strain” value [6]?
**A.** ++ (a saccharide-transferred product was detected in an amount over ten percent through transfer reaction to acceptor)

**Q.** What about the “Product … of N75 strain” value [7] of the same compound?
**A.** ++ (a saccharide-transferred product was detected in an amount over ten percent through transfer reaction to acceptor)

**Q.** And the “Product … of A19 strain” value [8]?
**A.** ± (a saccharide-transferred product was detected in an amount less than one percent through transfer reaction to acceptor)

**Q.** Which results are given for isomaltosyl glucoside?
**A.** Enzymatic action, Enzyme of C9 strain [1]: −; Enzymatic action, Enzyme of C11 strain [2]: −; Enzymatic action, Enzyme of N75 strain [3]: −; Enzymatic action, Enzyme of A19 strain [4]: −

**Q.** maltoheptaose was tested. Which “Enzymatic action, Enzyme of C9 strain” value [1] did it give?
**A.** +++

**Q.** What about the “Enzymatic action, Enzyme of C11 strain” value [2] of the same compound?
**A.** +++

**Q.** And the “Enzymatic action, Enzyme of N75 strain” value [3]?
**A.** +++

**Q.** And the “Enzymatic action, Enzyme of A19 strain” value [4]?
**A.** +++

**Q.** Which “Enzymatic action, Enzyme of C9 strain” value [1] does the source give for maltohexaose here?
**A.** +++

**Q.** And the “Enzymatic action, Enzyme of C11 strain” value [2]?
**A.** +++

**Q.** And the “Enzymatic action, Enzyme of N75 strain” value [3]?
**A.** +++

**Q.** What about the “Enzymatic action, Enzyme of A19 strain” value [4] of the same compound?
**A.** +++

**Q.** How did the “Enzymatic action, Enzyme of C9 strain” value [1] turn out when maltopentaose was run?
**A.** +++

**Q.** And the “Enzymatic action, Enzyme of C11 strain” value [2]?
**A.** +++

**Q.** What about the “Enzymatic action, Enzyme of N75 strain” value [3] of the same compound?
**A.** +++

**Q.** And the “Enzymatic action, Enzyme of A19 strain” value [4]?
**A.** +++

**Q.** Which “Enzymatic action, Enzyme of C9 strain” value [1] does the source give for maltotriose here?
**A.** ++

**Q.** And the “Enzymatic action, Enzyme of C11 strain” value [2]?
**A.** ++

**Q.** And the “Enzymatic action, Enzyme of N75 strain” value [3]?
**A.** ++

**Q.** What about the “Enzymatic action, Enzyme of A19 strain” value [4] of the same compound?
**A.** ++
